Results on 1 compound are retold here after patent US20110262464A1, “Compositions, Kits, and Methods for the Diagnosis, Prognosis, and Monitoring of Cancer Using GOLPH3” (DANAFARBER CANCER INSTITUTE, INC., priority 2008, published 2011).

The subject of assay [1] is WM239A melanoma xenograft tumors. Put plainly: In vivo rapamycin treatment of xenograft tumors. Also on record: species or system mouse. The following applies: WM239A-GOLPH3 tumors; rapamycin 6.0 mg/kg i.p. every other day; day 8, post 4 doses. As for the experimental part:
(§1) For in vivo rapamycin studies, melanoma 1205LU and WM239A cells verified to stably-express empty vector or GOLPH3 were subcutaneously implanted into female nude animals (Taconic) at 5.0×10^5 cells/site on both flanks. Tumors were allowed to reach approximately 100 mm^3, after which time animals were randomized into separate cohorts for treatment with vehicle [5% (vol/vol) PEG400.5% (vol/vol) Tween-80) or rapamycin (6 mg/kg; LC Laboratories; 50 mg/ml stock prepared in 100% ETOH and diluted fresh in vehicle solvent for treatment) by intraperitoneal injection every other day. Tumor volumes and body weights were measured upon drug administration. Tumor volume was determined by measuring in two directions with vernier calipers and formulated as tumor volume=[…]. Growth curves were plotted as mean change in tumor volume for each group, where mean change indicates change in tumor volume at a given time point minus tumor volume at time of initial dose administration. Endpoint scatter plots were plotted as proportion of final dose endpoint tumor volume over respective tumor baseline starting volume. Percent tumor growth inhibition was determined as (1-(T/N))×100, where T is the mean change in tumor volume of the treated group and N is the mean change in tumor volume of the control group at the assay endpoint. Two-tailed t-test calculations were performed using Prism 4 (Graphpad).

Assay [2] concerns 1205LU melanoma xenograft tumors. As to the kind of experiment: In vivo rapamycin treatment of xenograft tumors. Also on record: species or system mouse. Conditions: 1205LU-GOLPH3 tumors; rapamycin 6.0 mg/kg i.p. every other day; day 8, post 4 doses. As for the experimental part:
as §1

Turning to `CO[C@H]1C[C@@H]2CC[C@@H](C)[C@@](O)(O2)C(=O)C(=O)N2CCCC[C@H]2C(=O)O[C@H]([C@H](C)C[C@@H]2CC[C@@H](O)[C@H](OC)C2)CC(=O)[C@H](C)/C=C(\C)[C@@H](O)[C@@H](OC)C(=O)[C@H](C)C[C@H](C)/C=C/C=C/C=C/1C` [rapamycin], the figures for the “percent tumor growth inhibition (% TGI)” value in assay [1] and in assay [2] were 80.9% and 81.9%, respectively.
